In data set [1] the test system is LPS-stimulated macrophages. Conditions: published results, El-Mahmoudy 2002; cited from earlier work.
Data set [2] concerns Caco-2 monolayers. As to the kind of experiment: t10-CLA-induced loss of transepithelial electrical resistance in Caco-2 monolayers. In kind it is cell-based, human. From the text: Caco-2 Cells-The protocol for growing and differentiation the human Caco-2 colon andenocarcinoma cells was a modification of Protocol 3 as described by Yamashita et al. [[…]., and Furuyama, Y. (2002) New and better protocols for a short-term Caco-2 cell culture system, J Pharm Sci 91, 669-679]. Caco-2 Human Colon Adenocarcinoma cells were obtained from ATCC (Rockville, Md.; catalog #HTB-37) and maintained in a growth media: DMEM (Dulbecco's Modified Eagles Medium 1×) containing L-glutamine, glucose; Cellgro catalog #35-010CV with the following additions: (1) Penicillin (5,000 IU/mL)/Streptomycin (5,000 μg/mL) Cellgro catalog #30-001C1, (2) 10% FBS-Fetal Bovine Serum, Characterized; Hyclone catalog #SH30071.3, and (3) 1% NEAA-Non Essential Amino Acids; Cellgro catalog #25-025-CI; cells were cultured at 37 C in a humidified air-5% CO2 atmosphere in T175 flasks. Differentiation of Caco-2 cells to intestinal epithelial cells-BIOCOAT^R HTS Caco-2 Assay System kits (Becton Dickinson, N.J.; catalog #354801) consisting of 24-well fibrillar collagen coated inserts and feeder trays were used in all experiments and plated as follows. Media was removed from the T175 flasks and cells were washed with 10 mLs PBS (phosphate buffered saline 1× without Ca^++, without Mg^++; Cellgro #25-053-CI). PBS was removed and 5 mL of Trypsin/EDTA (1×, 0.25% Trypsin/2.21 mM EDTA in HBSS; Cellgro #25-053-CI) were added to the flask and the flask placed at 37 C until cells were visibly floating, approximately 3-5 minutes. Five mL of growth media were added to the flask to neutralize the trypsin. This solution was then transferred to a sterile 50 mL tube. Eight μL were sampled and placed in a hemocytometer for counting under a microscope. Five-hundred μL of cell solution were placed in the upper chamber of each insert so that the final density per well was at least 6.6×10^5 cells/cm^2. Thirty-five mL of growth media were then added to the feeder tray and plate incubated at 37 C with 5% CO2 and 100% humidity for 20-24 hours. […]

The subject of data set [3] is iNOS-mediated NO biosynthesis in 3T3-L1 adipocytes. As to the kind of experiment: LTI cytokine-stimulated NO biosynthesis in 3T3-L1 adipocytes. In kind it is cell-based, murine. The conditions noted are these: Mus musculus, value computed on the basis of TQ content, LPS/TNFα/IFγ stimulation 20 hours, (95% confidence interval), read-out: Median Inhibitory Concentration for iNOS-mediated NO biosynthesis, 3T3-L Adipocytes. Here is the method: Cell culture and treatment-The murine fibroblast cell line 3T3-L1 was purchased from the American Type Culture Collection (Manassas, Va.) and sub-cultured according to instructions from the supplier. Prior to experiments, cells were cultured in DMEM containing 10% FBS-HI added 50 units penicillin/ml and 50 μg streptomycin/ml, and maintained in log phase prior to experimental setup. Cells were grown in a 5% CO2 humidified incubator at 37° C. Components of the pre-confluent medium included: (1) 10% FBS/DMEM (Fetal Bovine Serum/Dulbecco's Modified Eagle's Medium) containing 4.5 g glucose/L; (2) 50 U/ml penicillin; and (3) 50 μg/ml streptomycin. Growth medium was made by adding 50 ml of heat inactivated FBS and 5 ml of penicillin/streptomycin to 500 ml DMEM. This medium was stored at 4° C. Before use, the medium was warmed to 37° C. in a water bath. […] cells were seeded at an initial density of 6×10^4 cells/cm^2 in 24-well plates. […] Determination of nitrite in waters by microplate fluorescence spectroscopy and HPLC with fluorescence detection. […] After a reaction time of 30 minutes at ambient temperature, the fluorescence was read with 485 nm excitation filter and a 530 nm emission filter in a Packard Fluorocount spectrofluorometer (Model #BF10000, Meridan, Conn.). […] Quantitative analysis of dose-effect relationships: the combined effects of multiple drugs or enzyme inhibitors.

SMILES strings stand for the structures. In brackets after ≈: the same amount, converted by molar mass. Marks after values point to notes of the source that are not given here.

As for `CC1=CC(=O)C(C(C)C)=CC1=O` [Thymoquinone (Sigma), thymoquinone], the “IC50 for NO inhibition in LPS-stimulated macrophages” value in data set [1] was 1.4 to 2.8 µg/mL. Further, the “Relative Loss of TEER” value in data set [2] (50 μM t10-CLA stimulus, positive control set to 100, each material at its tabulated concentration (TQ 5.0, NS8 0.11, NS9 0.99, NS10 0.012, NSSpent#2 0.0005 μg TQ equivalents/mL; Spent#1 5 μg/mL)) is 44.5*. For the same compound, in data set [2] (concentrations of Table 7), the “effect on loss of TEER in t10-CLA-stimulated Caco-2 cells” value is given as “inhibited loss of TEER”. The IC50 in data set [3] worked out at 1.9 µg/mL (≈ 11.6 µM).
